Laboratory results taken from article PMC11208742, “5,7,4′‐Trimethoxyflavone triggers cancer cell PD‐L1 ubiquitin–proteasome degradation and facilitates antitumor immunity by targeting HRD1” (MedComm, 2024).

Biological target: T1, HRD1 (HMG-CoA reductase degradation protein 1) (Homo sapiens, UniProt Q86TM6)
T1 construct: gene SYVN1; GFP-tagged wild-type HRD1 expressed in 293T cells, cell lysate (MST); endogenous untagged HRD1 in RKO cell lysate (CETSA)
Experiment: microscale thermophoresis, GFP-HRD1
Assay type: binding

T1 sequence (Q86TM6 whole entry): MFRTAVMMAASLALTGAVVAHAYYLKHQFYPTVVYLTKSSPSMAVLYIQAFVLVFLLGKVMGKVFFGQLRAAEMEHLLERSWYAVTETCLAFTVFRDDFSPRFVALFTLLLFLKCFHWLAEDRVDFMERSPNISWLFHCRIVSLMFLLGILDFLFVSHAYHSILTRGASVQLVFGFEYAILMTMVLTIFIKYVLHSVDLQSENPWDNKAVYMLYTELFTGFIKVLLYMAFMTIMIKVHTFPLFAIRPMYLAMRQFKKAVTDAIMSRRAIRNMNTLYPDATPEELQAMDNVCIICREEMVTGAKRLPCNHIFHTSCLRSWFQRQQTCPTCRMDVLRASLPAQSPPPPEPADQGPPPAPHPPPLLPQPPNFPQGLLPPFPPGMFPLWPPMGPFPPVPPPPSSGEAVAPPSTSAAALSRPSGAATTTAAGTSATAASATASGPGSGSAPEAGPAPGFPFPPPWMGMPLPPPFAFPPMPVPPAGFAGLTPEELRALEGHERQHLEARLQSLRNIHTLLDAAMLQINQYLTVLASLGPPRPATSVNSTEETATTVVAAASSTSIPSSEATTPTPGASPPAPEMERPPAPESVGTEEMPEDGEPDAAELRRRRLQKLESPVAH

Work on COc1ccc(-c2cc(=O)c3c(OC)cc(OC)cc3o2)cc1 [TF] yielded a Kd of 8.02 µM.
